Reference: patent US10316021B2, “Heteroarylphenoxy benzamide kappa opioid ligands” (Pfizer Inc., priority 2016, dated 2019)
Read-outs that look alike come from different tables or passages of the source.

Legend:
[1] = system: CYP3A4; test: Single point time dependent inhibition (SPTDI) assay; format: in vitro ADME, human
Description: Single Point Time Dependent Inhibition (SPTDI) Assay:
The objective of this study was to investigate the potential of a series of carboxamides to be time dependent inactivators of CYP3A isozymes, in vitro, using midazolam and testosterone as probe substrates for CYP 3A4/5 activity incubated with pooled human liver microsomes (HLM). Pooled HLMs (0.1-1.0 mg/ml) were pre-incubated with individual carboxamides at initial substrate concentrations of 6 or 10 μM in the presence and absence of NADPH (1.3 mM). Pre-incubations (n=2/compound) were performed for 30 min at 37° C. After pre-incubation, a 10-fold dilution of the incubate (0.02 ml) was added to the probe substrate incubate (0.18 ml) containing the respective probe P450 isozyme substrate (midazolam or testosterone for CYP3A, 1 uM), and was incubated at 37° C. The combined incubation reactions were terminated and analyzed for marker substrate activity (Ex: hydroxyl metabolite of midazolam and 6β hydroxy testesterone) as described previously (Walsky and Obach, 2004; Obach et al., 2007). Terminated incubation mixtures were filtered and analyzed by liquid chromatography (LC)-tandem mass spectrometry (MS/MS) for metabolites as described previously (Walsky and Obach, 2004). To determine kobs,app values, the decrease in natural logarithm of the activity over time was plotted for each inactivator concentration, and kobs,app values were described as the negative slopes of the lines. Inactivation kinetic parameters were determined using nonlinear regression of the data to the expression in eq. 1:
[formula] Statistical significance of kobs between solvent and test incubations was inferred using analysis performed by Yates et al. (Yates P, Eng H, Di L, Obach R S. Drug Metab Dispos 2012; 40:2289-96).
Irreversible inhibition, or time-dependent inhibition (TDI) of cytochrome P450s (CYPs) is generally characterized by an increase in enzyme inhibition with respect to time and inhibitor concentration (Grimm 2009). In cases where enzyme inhibition requires metabolic turnover, the mechanism generally involves the formation of a reactive inhibitory intermediate that may irreversibly inactivate CYPs; this mechanism could cause clinical drug-drug interactions due to inhibition of the relevant CYP responsible for metabolizing the victim drug (Grimm 2009; Rowland Yeo 2011). Hazard assessment for irreversible CYP450 inhibitory potential of CYP3A was performed for several compounds in Table 22 using the single point time dependent inhibition (SPTDI) assay, which measures the pseudo-first order rate constant of inactivation (kobs) at a single high concentration (6-10 μM) of a test compound (Zimmerlin 2011). Based on the analysis performed by Yates (2008), compounds showing a kobs of >0.008 min^−1 in this assay are considered to have a potential for TDI, and kobs<0.008 min^−1 are negative or may have a very weak potential for TDI at CYP3A4.

[2] = target: T1, kappa opioid receptor (Mus musculus, UniProt P33534); test: Progressive ratio responding (reversal of spiradoline-induced deficit in motivation); format: in vivo; details: co-administered with spiradoline, receptor occupancy measured in a separate group of animals
T1 construct: from tissue; host or cells: brain of adult male C57BL/6J mice (in vivo)
Excerpt: (§1) Adult male C576BL/J6 mice from Jackson Labs (Bar Harbor, Me.) were group housed on individually-vented cage racks, in environmentally-controlled animal quarters (light/dark-6:00 am/6:[…]) for a minimum of 7 days prior to use. For progressive ratio studies, mice were food-restricted to 80-85% of their body weight before testing began. All animal procedures were approved by the Pfizer Inc. IACUC and conducted in accordance with the NIH Guide for the Care and Use of Laboratory Animals.
Progressive Ratio Responding:
Motivation and food-reinforced operant behavior were assessed in the progressive ratio assay. Adult male C576BL/J6 mice were food-restricted to 80-85% of their body weight over a period of one week and kept in their home cages. Mice were trained to nose-poke for a food reward. […] Mice were assessed in a 60 minute session, where the number of rewards obtained was used as a surrogate of the level of motivation. Once mice had reached a stable level of responding, mice were dosed with the kappa opioid receptor agonist, spiradoline (3.2 mg/kg s.c.), to induce a deficit in motivation. Mice were co-administered increasing doses of the kappa opioid receptor antagonists (0.0032-3.2 mg/kg s.c.) to assess their ability to antagonize the spiradoline-induced deficit.

[3] = target: T1, kappa opioid receptor; test: In vivo receptor occupancy (displacement of [3H]GR103545 in brain); details: subcutaneous dosing; for IC50: displacement of [3H]GR103545, unbound brain concentration, read-out: Mouse KOR IVRO unbound brain IC50
Excerpt: as §1
In Vivo Receptor Occupancy
In vivo receptor occupancy was assessed in adult male C57BL6/J mice. Mice were administered increasing doses (0.001-32 mg/kg s.c.) 30 min prior to administration of the kappa opioid receptor ligand, [^3H]GR103545 (100 μCi/kg, intraorbital). Animals were euthanized 10 min later using cervical dislocation and the brains dissected. One hemisphere was stored at −40° C. for subsequent measurement of compound concentration, the other was homogenized in chilled Tris-HCl buffer (50 mM, pH 7.4; 1:10 w/v) for twenty seconds. Samples of brain homogenate were filtered through 0.3 to 0.5% PEI-soaked GF/B filters, and the filters washed twice with chilled buffer before radioactivity was counted overnight using a scintillation counter. Binding of the ligand in cerebellum was used to determine non-specific binding.

T1 sequence (P33534 whole entry): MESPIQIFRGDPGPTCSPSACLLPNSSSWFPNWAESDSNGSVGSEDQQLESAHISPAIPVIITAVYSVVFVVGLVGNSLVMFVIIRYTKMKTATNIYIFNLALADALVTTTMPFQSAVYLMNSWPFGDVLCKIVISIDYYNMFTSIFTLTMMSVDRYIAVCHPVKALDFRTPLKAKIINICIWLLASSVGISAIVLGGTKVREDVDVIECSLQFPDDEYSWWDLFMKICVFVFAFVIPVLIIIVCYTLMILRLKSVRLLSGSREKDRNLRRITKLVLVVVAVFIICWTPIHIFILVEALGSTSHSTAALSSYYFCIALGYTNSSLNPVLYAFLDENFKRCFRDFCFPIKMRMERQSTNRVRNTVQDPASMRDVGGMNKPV

Structure (SMILES) | SPTDI CYP3A4 kobs ([1]; single high dose of 10 μM) [min⁻¹] | % KOR IVRO to achieve 50% PR reversal [2] [%] | risk of time dependent inhibition (TDI) at CYP3A4, in words [1] | risk of time dependent inhibition (TDI) at CYP3A4, in words ([1]; listed as Compound 12) | displacement of KOR agonist radioligand binding in the brain, in words [3] | IC50 [3] [nM] | SPTDI kobs at CYP3A4 ([1]; tested at 10 μM) [min⁻¹] | SPTDI CYP3A4 kobs ([1]; single dose of 6 μM) | SPTDI kobs at CYP3A4 ([1]; tested at 6 μM) [min⁻¹] | risk of time dependent inhibition (TDI) at CYP3A4, in words ([1]; listed as Compound 11) | risk of time dependent inhibition (TDI) at CYP3A4, in words ([1]; listed as Compound 8)
NC(=O)c1ccc(Oc2ccc(CN3CCCCC3c3ccccc3)cc2)nc1 (centres unmarked) [Comparator B] | 0.0041 |  |  |  |  |  |  |  |  |  | 
COc1nn(C)cc1[C@@H]1CCCN1Cc1ccc(Oc2ccc(C(N)=O)cc2)cc1 (single isomer, unassigned) [Example 12] | 0.0042 | 30 | low to no significant risk for TDI at CYP3A4 | not time dependent inactivators of CYP3A4 | displaced KOR agonist radioligand ([^3H]GR103545) binding in the brain in an exposure-dependent manner | 2.5 |  |  |  |  | 
NC(=O)c1ccc(Oc2ccc(CN3CCC[C@H]3c3cccc(F)c3)cc2)c(F)c1 [Comparator F] | 0.0133 |  | potential risk of CYP3A4 TDI |  |  |  | 0.0133 |  |  |  | 
Cc1cc(C)cc([C@@H]2CCCN2Cc2ccc(Oc3ccc(C(N)=O)cc3F)cc2)c1 [Comparator E, reference compound] |  | 70 | potential risk of CYP3A4 TDI |  | displaced KOR agonist radioligand ([^3H]GR103545) binding in the brain in an exposure-dependent manner | 0.015 |  | 0.0113^2 min−1 | 0.011 |  | 
Cc1nn(C)cc1[C@@H]1CCCN1Cc1ccc(Oc2ccc(C(N)=O)cc2)cc1 [Example 11, 4-(4-{[(2S)-2-(1,3-Dimethyl-1H-pyrazol-4-yl)pyrrolidin-1-yl]methyl}phenoxy)benzamide] | 0.0055 | 30 | low to no significant risk for TDI at CYP3A4 |  | displaced KOR agonist radioligand ([^3H]GR103545) binding in the brain in an exposure-dependent manner | 2.5 |  |  |  | not time dependent inactivators of CYP3A4 | 
COc1nn(C)cc1C1CCCN1Cc1ccc(Oc2ccc(C(N)=O)cc2F)cc1 (single isomer, unassigned; (-)) [Example 8, (−)-3-Fluoro-4-(4-{[2-(3-methoxy-1-methyl-1H-pyrazol-4-yl)pyrrolidin-1-yl]methyl}phenoxy)benzamide] | 0.0044 | 25 | low to no significant risk for TDI at CYP3A4 |  | displaced KOR agonist radioligand ([^3H]GR103545) binding in the brain in an exposure-dependent manner | 0.69 |  |  |  |  | not time dependent inactivators of CYP3A4
NC(=O)c1ccc(Oc2ccc(CN3CCCC3c3ccccc3)cc2)nc1 (centres unmarked) [Comparator D] | 0.0065 |  |  |  |  |  |  |  |  |  | 
